Test results reported in patent US6492401B1, “N-[(substituted five-membered di- or triaza diunsaturated ring)carbonyl] guanidine derivatives for the treatment of ischemia” (Pfizer, Inc., priority 1998, dated 2002).

Biological target: T1, human NHE-1 (Homo sapiens, UniProt P19634)
T1 construct: expressed in transfected cells; host or cells: fibroblasts stably expressing human NHE-1 (cell line per Counillon et al., Mol. Pharmacol. 44:1041-1045, 1993)
Assay: Measurement of human NHE-1 inhibitory activity (NHE-mediated recovery of intracellular pH after acidification, BCECF fluorescence)
Type: cell-based
Details: fibroblasts stably expressing human NHE-1
Experimental: Methodologies for measurement of human NHE-1 activity and inhibitor potency are based on those published by Watson et al., Am. J. Physiol., 24:G229-G238, 1991), where NHE-mediated recovery of intracellular pH is measured following intracellular acidification. Thus, fibroblasts stably expressing human NHE-1 (Counillon, L. et al., Mol. Pharmacol., 44:1041-1045 (1993) are plated onto collagen coated 96 well plates (50,000/well) and grown to confluence in growth media (DMEM high glucose, 10% fetal bovine serum, 50 u/ml penicillin and streptomycin). Confluent plates are incubated for 30 min at 37° C. with the pH sensitive fluorescent probe BCECF (5 μM; Molecular Probes, Eugene, Oreg.). BCECF loaded cells are incubated for 30 min at 37° C. in acid loading media (70 mM choline chloride, 50 mM NHCl4, 5 mM KCl, 1 mM MgCl2, 1.8 mM CaCl2, 5 mM glucose, 10 mM HEPES, pH 7.5), and then placed in a Fluorescent Imaging Plate Reader (Molecular Devices, CA). BCECF fluorescence is monitored using excitation and emission wavelengths of 485 nm and 525 nM, respectively. Intracellular acidification is initiated via rapid replacement of acid loading media with recovery media (120 mM NaCl, 5 mM KCl, 1 mM MgCl2, 1.8 mM CaCl2, 5 mM glucose, 10 mM HEPES, pH 7.5)±test compound, and NHE-mediated recovery of intracellular pH is monitored as the subsequent time-dependent increase BCECF fluorescence.

T1 sequence (P19634 whole entry): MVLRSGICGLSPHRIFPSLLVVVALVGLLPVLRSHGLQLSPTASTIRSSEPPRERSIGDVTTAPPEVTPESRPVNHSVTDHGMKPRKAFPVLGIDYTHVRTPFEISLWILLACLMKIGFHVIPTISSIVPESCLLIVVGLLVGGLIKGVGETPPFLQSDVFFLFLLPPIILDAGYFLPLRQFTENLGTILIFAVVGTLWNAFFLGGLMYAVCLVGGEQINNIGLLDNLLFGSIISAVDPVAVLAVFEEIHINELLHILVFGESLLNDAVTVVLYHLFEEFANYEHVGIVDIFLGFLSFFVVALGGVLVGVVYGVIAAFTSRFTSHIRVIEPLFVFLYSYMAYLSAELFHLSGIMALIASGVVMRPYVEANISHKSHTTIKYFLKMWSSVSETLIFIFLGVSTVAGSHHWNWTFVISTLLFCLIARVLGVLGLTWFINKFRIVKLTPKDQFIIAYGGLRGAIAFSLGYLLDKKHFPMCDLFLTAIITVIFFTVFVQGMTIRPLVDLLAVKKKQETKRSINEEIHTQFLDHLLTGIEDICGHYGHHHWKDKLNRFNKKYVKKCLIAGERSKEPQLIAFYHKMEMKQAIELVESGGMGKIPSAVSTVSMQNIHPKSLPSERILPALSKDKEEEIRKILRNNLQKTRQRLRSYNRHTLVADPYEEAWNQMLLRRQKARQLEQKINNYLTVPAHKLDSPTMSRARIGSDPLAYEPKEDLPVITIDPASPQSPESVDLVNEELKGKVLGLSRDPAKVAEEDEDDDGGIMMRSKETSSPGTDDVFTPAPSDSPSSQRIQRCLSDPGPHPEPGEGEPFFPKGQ

- IC50: 500 nM
Compound: CC(C)c1ccc(C(=O)NC(=N)N)cc1S(C)(=O)=O [HOE-642]
